Measured values as given in BindingDB's records for doi:10.7270/Q24748BK (Burnham Center For Chemical Genomics, 2010).

Molecular target: T1, Tyrosine-protein phosphatase non-receptor type 22 (Homo sapiens, UniProt Q9Y2R2)
T1 sequence (Q9Y2R2 whole entry): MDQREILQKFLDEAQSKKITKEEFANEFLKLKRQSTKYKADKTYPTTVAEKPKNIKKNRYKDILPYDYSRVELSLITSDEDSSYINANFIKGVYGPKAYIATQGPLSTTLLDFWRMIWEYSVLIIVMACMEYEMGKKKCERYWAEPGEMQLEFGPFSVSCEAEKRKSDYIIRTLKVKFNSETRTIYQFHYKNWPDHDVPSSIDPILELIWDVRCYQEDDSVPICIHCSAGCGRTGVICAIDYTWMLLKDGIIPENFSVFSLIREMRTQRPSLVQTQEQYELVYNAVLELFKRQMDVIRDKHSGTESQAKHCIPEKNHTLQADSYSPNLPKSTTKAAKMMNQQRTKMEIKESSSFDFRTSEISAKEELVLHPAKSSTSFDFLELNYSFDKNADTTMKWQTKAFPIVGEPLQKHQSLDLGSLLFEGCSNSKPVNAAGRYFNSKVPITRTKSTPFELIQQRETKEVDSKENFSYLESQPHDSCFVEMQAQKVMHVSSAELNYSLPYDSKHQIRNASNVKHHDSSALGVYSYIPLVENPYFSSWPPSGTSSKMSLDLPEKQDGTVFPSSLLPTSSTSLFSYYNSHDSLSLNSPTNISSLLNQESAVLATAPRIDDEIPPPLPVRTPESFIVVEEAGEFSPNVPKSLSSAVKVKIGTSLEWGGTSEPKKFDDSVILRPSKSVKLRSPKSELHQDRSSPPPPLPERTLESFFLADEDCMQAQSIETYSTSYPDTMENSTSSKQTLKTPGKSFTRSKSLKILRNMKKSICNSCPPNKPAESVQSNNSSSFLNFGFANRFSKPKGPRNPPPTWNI
Experiment: LYP phosphatase inhibitor potency, dose response, biochemical, pCAP substrate, fluorescence intensity (AID 435027)

Row | IC50 [µM] | Compound
1 | 7.65 | N=C(NN=Cc1ccc2c(c1)OCO2)Sc1cc(O)n(-c2ccc(C(=O)O)cc2)c1O [4-(3-{[[(2E)-2-(1,3-benzodioxol-5-ylmethylene)hydrazino](imino)methyl]thio}-2,5-dioxopyrrolidin-1-yl)benzoic acid]
2 | > 79.4 | Cc1ccc(NN=C2C(=O)N(CN3CCOCC3)c3ccccc32)cc1 [(3Z)-3-[(4-methylphenyl)hydrazinylidene]-1-(4-morpholinylmethyl)-2-indolone]
3 | > 79.4 | O=C1C([N+](=O)[O-])=CC(Br)=CC1/C=N/n1cnnc1 (stereo not given) [MLS000714804]
4 | 15.7 | COC1=CC=CC(/C=N/NC(=O)c2cc3cc([N+](=O)[O-])ccc3s2)C1=O (stereo not given) [SMR000237814]
5 | > 79.4 | CCOC(=O)NC(=O)C(C=Nc1ccc(C)cc1)C(=O)NC(=O)OCC [ethyl 2-{[(ethoxycarbonyl)amino]carbonyl}-3-(4-toluidino)acryloylcarbamate]
